Several values for one entry are separate records, joined by “and”; a condition that tells them apart may be missing. Identical values can stand only once.
Columns and labels:
[1] = Bimatoprost bulk sample elution, normalized to ng per device per day; type: physicochemical; conditions: for zero order elution rate: about 90 days
Description: Bulk samples of 1% Bimatoprost having a known diameter of 0.076 cm (0.76 mm) were prepared. The height of each sample was determined from the weight and known diameter of the sample.
The calculated heights ranged from 0.33 cm to 0.42 cm. The exposed surface area on each end of each bulk sample was approximately 0.045 cm2, providing volumes of 0.019 cm3 and 0.015 cm3 for the 0.42 and 0.33 cm samples, respectively. The exposed an exposed surface area of samples calculated from the height and diameter without a drug sheath was approximately 0.1 cm2. Three formulations were evaluated: 1) silicone 4011, 1% Bimatoprost, 0% surfactant; 2) silicone 4011, 1% Bimatoprost, approximately 11% surfactant; and 3) silicone 4011, 1% Bimatoprost, approximately 33% surfactant. The elution data measured for the bulk samples with formulation 1, 2 and 3 were normalized to ng per device per day (ng/device/day) assuming a surface area of the bulk device is 0.1 cm2 and the surface area of the clinical device is 0.00078 cm2 (0.3 mm diameter). […] The normalized elution profile is about 10 ng per day. […] Similar formulations can be used with drug core sheaths and a shaped exposed surface of the core exposed to the tear to increase the exposed surface area as described above and deliver the drug in therapeutic amounts over an extended period.

[2] = In vitro elution study of drug cores (drug in silicone matrix in polyimide tube) in 7.4 pH buffer, HPLC; type: physicochemical; conditions: for Duration: calculated time when ~10% of drug remains
Description: Drug cores as described above have been fabricated with different cross sectional sizes of 0.006 inches, 0.012 inches, and 0.025 inches, and drug concentrations of 5%, 10% and 20% in a silicone matrix. Theses drug cores can be made with a Syringe Tube and Cartridge Assembly, Mixing Latanoprost with Silicone, and Injecting the mixture into a polyimide tube which is cut to desired lengths and sealed. The length of the drug cores were approximately 0.80 to 0.95 mm, which for a diameter of 0.012 inches (0.32 mm) corresponds to total Latanoprost content in the drug cores of approximately 3.5 μg, 7 μg and 14 μg for concentrations of 5%, 10% and 20%, respectively.
Mix Latanoprost with Silicone. Prepare Latanoprost. Latanoprost is provided as a 1% solution in methylacetate. Place the appropriate amount of solution into a dish and using a nitrogen stream, evaporate the solution until only the Latanoprost remains. Place the dish with the Latanoprost oil under vacuum for 30 minutes. Combine Latanoprost with silicone. Prepare three different concentrations of Latanoprost (5%, 10% and 20%) in silicone Nusil 6385 and inject it into tubing of different diameters (0.006 in, 0.012 in and 0.025 inches) to generate 3×3 matrixes. The percent of Latanoprost to silicone is determined by the total weight of the drug matrix. Calculation: Weight of Latanoprost/(weight of Latanoprost+weight of silicone)×100=percent drug.
Inject tube. 1. Insert Cartridge and Polyimide tubes assembly into 1 ml syringe. 2. Add one drop of catalyst, (MED-6385 Curing Agent) in the syringe. 3. Force excess catalyst out of the polyimide tube with clean air. 4. Fill syringe with silicone drug matrix. 5, Inject tube with drug matrix until the tube is filled or the syringe plunger becomes too difficult to push. 6. Close off the distal end of the polyimide tube and maintain pressure until the silicone begins to solidify. 7. Allow to cure at room temperature for 12 hours. 8. Place under vacuum for 30 minutes. 9. Place tube in right size trim fixture (prepared in house to hold different size tubing) and cut drug inserts to length (0.80-0.95 mm).
Testing. Elution study (in vitro). 1. Place 10 plugs of same size and same concentration per centrifuge tube and add 1.5 ml of 7.4 pH buffer solution to it. 2. Change the solvent with fresh 7.4 pH buffer after appropriate time. 3. Take HPLC of the elutant at 210 nm with PDA detector 2996 using Sunfire C18, 3 mm×10 mm column (Waters Corporation, Milford, Mass.). Acetonitrile and water mixture is used for gradient elution. Calibration was done in house before and after each analysis, using in-house standards with precisely weighed concentration of Latanoprost. 4. Calculate the amount of drug release per day per device for different size tubings having different concentrations of Latanoprost. 5. Plot elution rate vs area and concentration for day 1 and day 14.

[3] = cited from earlier work
IOP = conditions: cited from earlier work
[4] = Inclusion (droplet) diameter in silicone/latanoprost cores, scanning electron micrographs; type: physicochemical; conditions: for average inclusion diameter and standard deviation: latanoprost-silicone mixture, n=40 inclusion; for average diameter of latanoprost droplets: silicone matrix
Description: A two part silicone formulation (MED6385, Nusil Technologies) was used in the preparation of a composite resin containing latanoprost, which was used to fill a section of polyimide sheathing. The sheathing containing the polymerized silicone incorporates discrete latanoprost domains, existing in the form of droplets of less than about 25 μm maximum diameter, within the matrix. Several experiments were conducted.
Part A of the MED6385 silicone formulation was mixed with 0.43 μL of Part B, the tin catalyst, using syringes, to bring about partial coagulation of the polymer over 30 minutes. Then, 37 mg of that material was mixed with a premixed solution of 0.144 additional catalyst and 13 mg latanoprost, and that mixture could be further mixed by sonication with an ultrasonic probe. The resulting mixture was transferred to a syringe needle connected to a HP7x syringe adapter, which is connected to an EFD pump, which is in turn connected to a compressed air system and the delivery pressure set to 40 psi. The silicone-latanoprost mixture is then extruded down the length (10 cm) of polyimide tubing (IWG High Performance Conductors, Inc.). When the viscous mixture reached the bottom of polyimide tubing, clamps were applied at the bottom of the tubing and at the top connection with the syringe adapter, then pressure is released and the tubing section removed. The clamped section of tubing was placed in a humidity chamber (Thunder Scientific) for curing at 40° C. and 80% relative humidity (RH) for approximately 16-24 hrs.
Scanning electron micrographs of the sheath containing the cured matrix, i.e., the filled precursor sheath, are shown in FIG. 15A-D at the magnifications indicated. The inserts were sectioned cryogenically. FIGS. 15A and 15B, respectively, show the insert cores wherein the extrusion was carried at 40° C. (A) or 25° C. (B).
The temperature of the mixture, and of the associated apparatus involved in filling the polyimide sheath was held at various temperatures during the injection process. Among the temperatures used were a slightly elevated temperature (40° C.), approximate room temperature (25° C.), and subambient temperatures, such as 0° C., −5° C., and −25° C. The subambient injection procedures are provided in this Example.
Scanning electron micrographs of the sheath containing the cured matrix, i.e., the filled precursor sheath, are shown in FIG. 15A-D at the magnifications indicated. The inserts were sectioned cryogenically. FIGS. 15C and 15D show the results of extrusions carried out at 0° C. and −25° C. respectively. They can be compared with FIGS. 15A and 15B that were carried out at ambient temperature (25° C.) or above (40° C.).
Measurements of average inclusion diameters, and standard deviation thereof, are as shown: […]

[5] = Latanoprost content per 1 mm section divided from a filled precursor tube; type: physicochemical
Description: (squares) unexpectedly produced a more uniform distribution of therapeutic agent latanoprost in the silicone matrix, after curing, along the entire length of the 10 cm precursor sheath, which was subsequently divided into 1 mm sections, and the latanoprost content of each sections (drug insert) determined. Extrusions carried out at room temperature (circles) and at 40° C. […] The results are significant in terms of manufacturing medically useful devices, as it is desirable to maintain a uniform content of the therapeutic agent among a plurality of drug inserts manufactured by this method.
Measurements of average latanoprost content (μg) per 1 mm section (core) divided (razor blade) from a filled precursor tube are as shown: […]

[6] = topical drop to the eye; cited from earlier work
[7] = formulations A-D (silicone 4011 or 6385, 10-20% Latanoprost, 0-20% NaCl), non-sterile cores

CCNC(=O)CCC/C=C\C[C@@H]1[C@@H](/C=C/[C@@H](O)CCc2ccccc2)[C@H](O)C[C@@H]1O [Bimatoprost]
release kinetics ([1]; from about ten days to about 90 days, each of the formulations 1-3): approximately zero order release kinetics | zero order elution rate ([1]; scaled to 0.76 mm exposed diameter (0.0045 cm2)): about 60 ng per day | zero order elution rate ([1]; scaled to exposed surface area about 0.0078 cm2): about 100 ng per day | normalized elution profile ([1]; silicone 4011, 1% Bimatoprost, 0/11/33% surfactant bulk samples, normalized to 0.3 mm exposed surface diameter (0.00078 cm2)): about 10 ng per day | elution rate ([2]; 20% bimatoprost in NuSil 6385, 0% salt, 1 day): about 100 ng per day | relative elution rate ([2]; 20% bimatoprost in NuSil 6385, 0% salt, all time periods to two weeks): lowest elution rate | elution rate ([2]; 20% bimatoprost in NuSil 6385, 10% salt, 1 day): 400 ng per day | elution rate ([2]; 20% bimatoprost in NuSil 6385, 20% salt, 1 day): about 750 ng/day | relative elution rate ([2]; 20% bimatoprost in NuSil 6385, 20% salt, all time periods to two weeks): highest elution rate

O=C1OC2(c3ccc(O)cc3Oc3cc(O)ccc32)c2ccccc21 [Fluorescein]
solubility in water [3]: soluble in water

CC(C)OC(=O)CCC/C=C\C[C@@H]1[C@@H](CC[C@@H](O)CCc2ccccc2)[C@H](O)C[C@@H]1O [Latanoprost]
elution rate ([2]; 7 μg core (10%, 0.32 mm diameter, 0.95 mm long), 10 to 20 days, compared with 14 μg core): comparable rates | elution rate ([2]; 14 μg core (20%, 0.32 mm diameter, 0.95 mm long), from about 10 to 40 days): approximately 100 ng per day | relative elution rate ([2]; 20% latanoprost in 6380 material with 2.5% crosslinker, 1, 4, 7 and 14 days, vs 6385 material): slightly lower elution rate | relative elution rate ([2]; 20% latanoprost in 6380 material with 5% crosslinker, all time points): lowest elution rate | relative elution rate ([2]; 20% latanoprost in 6385 material with 2.5% crosslinker, 1, 4, 7 and 14 days): highest elution rates | relative elution rate ([2]; 6385 material with 5% latanoprost, all time periods): lowest rate | elution rate ([2]; 6385 material with 5, 10, 20, 30 and 40% latanoprost, all samples, by 7 days): below 500 ng per day | elution rate, both ends open/2 compared with one end open ([2]; 6385 material with 20% latanoprost, all time points): very close to the one end open data | relative elution rate ([2]; 6385 material with 40% latanoprost, all time periods): highest rate | initial elution of Latanoprost from plug ([2]; buffered saline elution system, initial): approximately 500 ng per day | elution rate after dropping off ([2]; buffered saline elution system, within 7-14 days, depending on initial concentration): approximately 100 ng/day | Latanoprost released (elution rate) ([2]; day 1, 0.006 inch diameter core, exposed surface area approx 0.02 mm2): about 200 ng | Latanoprost released (elution rate) ([2]; day 1, 0.012 inch diameter core, exposed surface area approx 0.07 mm2): ~400 ng | Latanoprost released (elution rate) ([2]; day 1, 0.025 inch diameter core, exposed surface area approx 0.32 mm2): ~1200 ng | Latanoprost released (elution rate) ([2]; day 14, 0.006 inch diameter core, approx 0.02 mm2): about 25 ng | Latanoprost released (elution rate) ([2]; day 14, 0.012 inch (0.32 mm) diameter core, approx 0.07 mm2): ~100 ng | Latanoprost released (elution rate) ([2]; day 14, 0.025 inch diameter core, approx 0.32 mm2): ~300 ng | elution rate ([2]; e-beam sterile core, 20% latanoprost in 6385, first day): about 450 ng/day | elution rate by 3 weeks (21 days) [2, 7]: about 100 ng per device per day | initial elution rate [2, 7]: approximately 300 ng per device per day | elution rate ([2]; non-sterile core, 20% latanoprost in 6385, 14 day): about 150 ng/day | elution rate ([2]; non-sterile core, 20% latanoprost in 6385, days 4 and 7): about 400 ng/day | elution rate ([2]; non-sterile core, 20% latanoprost in 6385, first day): ~1400 ng/day | elution rate ([2]; sterile core, 20% latanoprost in 6385, 14 day): 200 ng/day | elution rate ([2]; sterile core, 20% latanoprost in 6385, days 4 and 7): about 400 ng/day | Duration ([2]; total Latanoprost content 3.5 μg): ~25 days | Duration ([2]; total Latanoprost content 7 μg): ~45 days | Duration ([2]; total Latanoprost content 14 μg): ~100 days | duration of IOP lowering (IOP; about 200 ng of drug remaining on the eye after a drop of Xalatan): at least 24 hours | IOP reduction relative to that of the 50 μg/mL QD dose (IOP; lowest doses of 12.5 μg/mL QD or 15 μg/mL BID): 60-75% | average inclusion diameter and standard deviation ([4]; Cold extrusion (−5° C.)): 0.006±0.002 mm | maximum diameter of latanoprost droplets ([4]; MED6385 matrix, high pressure filling): less than 25 μm | average inclusion diameter and standard deviation ([4]; Room temp (22° C.) extrusion): 0.019+0.019 mm and 0.019±0.019 mm | average diameter of latanoprost droplets ([4]; cold extrusion (−5° C.)): 6 μm | average diameter of latanoprost droplets ([4]; extrusion at room temperature): 19 μm | average latanoprost content per 1 mm section (Average±SD) ([5]; Cold extrusion (−5° C.)): 20.9 ± 0.5 µg | average latanoprost content per 1 mm section (Average±SD) ([5]; Room temperature (22° C.) extrusion): 20.2 ± 1.9 µg

CC(C)(C)NC[C@H](O)COc1nsnc1N1CCOCC1 [Timolol]
bioavailability [6]: 30-50%

From patent US8628792B2, “Drug cores for sustained release of therapeutic agents” (Mati Therapeutics, Inc., priority 2007, dated 2014)
